Format in all cases: cell-based
For test [1], the system named is BT20 cancer cells. Briefly: ELISA (Amplex Red hydrogen peroxide release assay) of BT20 cells. Particulars: single replicate wells. The procedure:
(§1) BT20 and 4T1 cells were purchased from American Type Culture Collection (ATCC). Both cell lines were maintained in RPMI-1640 medium (Sigma-Aldrich) with 10% Fetal Bovine Serum (FBS) (Gibco) at 37° C. with 5% CO2. The medium was renewed every two days. Well-grown BT20 cells in logarithmic phase were digested by 0.25% (w/v) Trypsin (Fisher Scientific) from the original culture flask and mixed well before being seeded on a 96-well cell culture plate (Denville Scientific) with a density of 5×10^4 cells/mL and incubated with the same full medium at 37° C. with 5% CO2 for 24 h. Cells were then treated with 100 μL of 50 μM doxonibicin (Dox) (Sigma-Aldrich). Cells treated with 100 μL of vehicle (RPMI-1640 medium) only served as a control. The Dox group and control group each had eight replicate wells. After 24 h of incubation, 50 μL of the medium was collected from each well and proceeded for hydrogen peroxide determination.
The hydrogen peroxide release assay was carried on using Amplex™ Red Hydrogen Peroxide/Peroxidase Assay Kit (Invitrogen) according to the instruction. […] After incubation at room temperature in the dark for 30 min, the absorbance of each well at 560 nm of was measured with a CLARIOstar™ microplate reader (BMG Labtech). The concentration of hydrogen peroxide in the sample was calculated according to the standard curve. […]
(In general: An ELISA detects its analyte on a solid surface through an enzyme-linked reagent.)

Test [2] relates to 4T1 cancer cells. The test is described as follows: SAM CA (chronoamperometry with standard addition) of hydrogen peroxide release from 4T1 cells. The procedure:
as §1, with “Cells treated with 100 μL of vehicle (RPMI-1640 medium) only served as a control. The Dox group and control group each had eight replicate wells. After 24 h of incubation, 50 μL of the medium was collected from each well and proceeded for hydrogen peroxide determination.” left out
(§2) Electrochemical activity of the PB/ZnO/COOH-MWNTs was studied using cyclic voltammetry (CV) and chronoamperometry (CA) using AfterMath™ software ver 1.2.5658 and a WaveNano™ potentiostat (Pine Research Instrument Co., Raleigh, N.C., USA). […] The concentrations of hydrogen peroxide in BT20 cancer cells were measured chronoamperometrically, employing the standard addition method (CA SAM). Samples were measured by standard additions of hydrogen peroxide in increasing order to create the calibration curve needed to determine the unknown hydrogen peroxide concentration in the cancer cells. BT20 and 4T1 cancer cells were cultured and the concentration of hydrogen peroxide in the cancer cells analyzed using this sensor. […]

The subject of test [3] is 4T1 cancer cells. The test is described as follows: ELISA (Amplex Red hydrogen peroxide release assay) of 4T1 cells.
Test [4] deals with BT20 cancer cells. Briefly: SAM CA (chronoamperometry with standard addition) of hydrogen peroxide release from BT20 cells. The procedure: as §1, with “Cells treated with 100 μL of vehicle (RPMI-1640 medium) only served as a control. The Dox group and control group each had eight replicate wells. After 24 h of incubation, 50 μL of the medium was collected from each well and proceeded for hydrogen peroxide determination.” left out
as §2

The values that follow come from patent publication US20230059022A1, “PRUSSIAN BLUE ZnO CARBON NANOTUBE COMPOSITE FOR MEASURING HYDROGEN PEROXIDE IN CANCER CELLS” (Middle Tennessee State University, priority 2020, published 2023).

“And” between values parts separate entries of the source, which are not always exact repeats. Equal values may be shown once.

For `COc1cccc2c1C(=O)c1c(O)c3c(c(O)c1C2=O)C[C@@](O)(C(=O)CO)C[C@@H]3O[C@H]1C[C@H](N)[C@H](O)[C@H](C)O1` [Dox, doxonibicin], the “H2O2 from Dox-treated BT20 cancer cells, ELISA results” value in the test on BT20 cancer cells [1] is 5.0152 μM and 5.3182 μM (2×) and 5.6212 μM (2×) and 6.0758 μM and 6.9848 μM and 4.4091 μM. For the same compound, the “H2O2 from Dox treated 4T1 cancer cells, SAM CA” value in the test on 4T1 cancer cells [2] (4T1 cells, Dox treated, single replicates, SAM CA) was 14 µM and 15.6 µM and 16 µM. For the same compound, the “concentration of hydrogen peroxide released in Dox-treated 4T1 cancer cells (mean)” value in the test on 4T1 cancer cells [2] (Dox-treated 4T1 cells, CA SAM, n=3, p=0.0182 vs untreated) was 15.2 µM. The “H2O2 from Dox treated 4T1 cancer cells, ELISA results” value in the test with 4T1 cancer cells [3] (Dox treated, single replicate wells) was 1.9605 µM and 2.0921 µM and 2.4868 µM and 2.75 µM and 2.8816 µM and 2.6184 µM and 3.0132 µM and 1.8289 µM. Moreover, the “difference in hydrogen peroxide between Dox-treated and untreated 4T1 cells by ELISA” value in the test with 4T1 cancer cells [3] (p=0.8932) was “no statistical difference”. Further, the “hydrogen peroxide concentration in Dox-treated BT20 cancer cells (mean)” value in the test on BT20 cancer cells [4] (48 h Dox-treated BT20 cells, CA SAM, n=6) worked out at 16.0 ± 1.4 µM. Also, the “H2O2 from Dox-treated BT20 cancer cells, SAM CA” value with BT20 cancer cells [4] (BT20 cells, Dox treated, single replicates, SAM CA) is 15.1 μM and 15.88 μM (2×) and 17.47 μM (2×) and 14.42 μM.
